For data set [1], the system named is Staphylococcus aureus. In words: Disruption of membrane integrity in Staphylococcus aureus ATCC 25923 assessed as increase in nucleic acid leakage by measuring PI-uptake level by microplate reader assay. It is filed as functional, organism-based.
Data set [2] relates to Staphylococcus aureus. Put plainly: Antibacterial activity against Staphylococcus aureus ATCC 25923 assessed as inhibition of rifampin resistance development measured after 15 passages in presence of rifampin by resistance development assay. It is filed as functional, organism-based.
Data set [3] relates to Escherichia coli. In words: Bactericidal activity against Escherichia coli ATCC 25922 at 2 times MIC measured after 30 mins by time-killing kinetics assay. Type of data set: functional. To be noted: 0.5 h.
Data set [4] deals with Escherichia coli. In words: Antibacterial activity against Escherichia coli ATCC 25922 assessed as inhibition of gentamicin resistance development measured after 15 passages in presence of gentamicin by resistance development assay. It is filed as functional, organism-based.
The subject of data set [5] is Staphylococcus aureus. Put plainly: Antibacterial activity against Staphylococcus aureus ATCC 25923 assessed as inhibition of gentamicin resistance development measured after 15 passages in presence of gentamicin by resistance development assay. It is filed as functional, organism-based.
In data set [6] the test system is Escherichia coli. Put plainly: Antimicrobial activity against Escherichia coli ATCC 25922 in presence of MgCl2. It is filed as functional, organism-based.
Data set [7] is described as follows: Acute toxicity in BALB/c mouse spleen assessed as edema at 20 to 80 mg/kg, ip administered as single dose measured for 7 days by H and E staining method. To be noted: in vivo, 168 h, dose 20-80 mg/kg, time 7 day. Type of data set: organism-based.
Data set [8] deals with Staphylococcus aureus. In words: In vivo antimicrobial activity against Staphylococcus aureus ATCC 25923 infected in BALB/C mouse pulmonary infection model administered ip. Type of data set: functional, organism-based. To be noted: dose 5-10 mg/kg, DDE = dose-dependent effect.
A short description of data set [9]: Acute toxicity in BALB/c mouse assessed as pathological changes in kidney at 20 to 80 mg/kg, ip administered as single dose measured for 7 days by H and E staining method. Type of data set: organism-based. To be noted: in vivo, 168 h, dose 20-80 mg/kg, time 7 day.
Data set [10] deals with Staphylococcus aureus. In words: Antimicrobial activity against Staphylococcus aureus ATCC 25923 in presence of FeCl3. It is filed as functional, organism-based.
Data set [11] deals with Staphylococcus aureus. Put plainly: Antibacterial activity against Staphylococcus aureus ATCC 25923 infected in BALB/C mouse pulmonary infection model assessed as increase in dilation of alveoli in lung at 10 mg/kg, ip after 24 hrs by H and E staining method. It is filed as functional, organism-based.
Data set [12] has as its system Escherichia coli. Put plainly: Disruption of membrane integrity in Escherichia coli ATCC 25922 assessed as increase in nucleic acid leakage by measuring PI-uptake level by microplate reader assay. It is filed as functional, organism-based.
Data set [13] concerns Staphylococcus aureus. Put plainly: Antimicrobial activity against Staphylococcus aureus ATCC 25923 in presence of KCl. It is filed as functional, organism-based.
Data set [14] has as its system Staphylococcus aureus. In words: Antibacterial activity against Staphylococcus aureus ATCC 25923 infected in BALB/C mouse pulmonary infection model assessed as increase in bacterial killing in lung at 10 mg/kg, ip after 24 hrs by H and E staining method. Type of data set: functional, organism-based.
Data set [15] deals with Escherichia coli. Put plainly: Antibiofilm activity against Escherichia coli ATCC 25922 assessed as inhibition of biofilm formation at 4 times MIC measured after 24 hrs by crystal violet staining based assay. It is filed as functional, organism-based.
In data set [16] the test system is Escherichia coli. In words: Bactericidal activity against Escherichia coli ATCC 25922 at 1 times MIC measured after 6 hrs by time-killing kinetics assay. Type of data set: functional.
Data set [17] relates to Staphylococcus aureus. Put plainly: Antimicrobial activity against Staphylococcus aureus ATCC 25923 assessed as fold increase in MIC in presence of KCl. It is filed as functional.
In data set [18] the test system is Staphylococcus aureus. Put plainly: Antimicrobial activity against Staphylococcus aureus ATCC 25923 assessed as increase fold in increase MIC in presence of FeCl3. Type of data set: functional.
The test system of data set [19] is Escherichia coli. In words: Bactericidal activity against Escherichia coli ATCC 25922 at 2 times MIC measured after 3 hrs by time-killing kinetics assay. It is filed as functional.
A short description of data set [20]: Acute toxicity in BALB/c mouse lung assessed as congestion at 20 to 80 mg/kg, ip administered as single dose measured for 7 days by H and E staining method. It is filed as organism-based. To be noted: in vivo, 168 h, dose 20-80 mg/kg, time 7 day.
Data set [21] can be described thus: Acute toxicity in BALB/c mouse lung assessed as distortion of alveolar morphology at 20 to 80 mg/kg, ip administered as single dose measured for 7 days by H and E staining method. Type of data set: organism-based. To be noted: in vivo, 168 h, dose 20-80 mg/kg, time 7 day.
The nature of data set [22]: Acute toxicity in BALB/c mouse lung assessed as increase in inter-alveolar space at 20 to 80 mg/kg, ip administered as single dose measured for 7 days by H and E staining method. It is filed as organism-based. To be noted: in vivo, 168 h, dose 20-80 mg/kg, time 7 day.
Data set [23] is described as follows: Acute toxicity in BALB/c mouse kidney assessed as edema at 10 to 40 mg/kg, ip administered as single dose measured for 7 days by H and E staining method. It is filed as organism-based. To be noted: in vivo, 168 h, dose 10-40 mg/kg, time 7 day.
Data set [24] can be described thus: Acute toxicity in BALB/c mouse assessed as pathological changes in liver at 10 to 40 mg/kg, ip administered as single dose measured for 7 days by H and E staining method. Type of data set: organism-based. To be noted: in vivo, 168 h, dose 10-40 mg/kg, time 7 day.
Data set [25] concerns Escherichia coli. In words: Bactericidal activity against Escherichia coli ATCC 25922 at 1 times MIC measured after 1 hr by time-killing kinetics assay. Type of data set: functional.
The nature of data set [26]: Acute toxicity in BALB/c mouse spleen assessed as edema at 10 to 40 mg/kg, ip administered as single dose measured for 7 days by H and E staining method. Type of data set: organism-based. To be noted: in vivo, 168 h, dose 10-40 mg/kg, time 7 day.
Data set [27] concerns Escherichia coli. Put plainly: Antimicrobial activity against Escherichia coli ATCC 25922 assessed as reduction in survival rate in presence of 0.02 to 2000 microg/ml of trypsin measured after 6 hrs. Type of data set: functional, organism-based.
The subject of data set [28] is Escherichia coli. In words: Bactericidal activity against Escherichia coli ATCC 25922 at 2 times MIC measured after 1 hr by time-killing kinetics assay. Type of data set: functional.
Data set [29] in a line: Acute toxicity in BALB/c mouse assessed as hyper-mobility at 10 to 20 mg/kg, ip administered as single dose measured for 7 days. It is filed as organism-based. To be noted: in vivo, 168 h, dose 10-20 mg/kg, time 7 day.
For data set [30], the system named is Escherichia coli. Put plainly: Antimicrobial activity against Escherichia coli ATCC 25922 assessed as reduction in survival rate in presence of >= 0.02 microg/ml of chymotrypsin measured after 6 hrs. Type of data set: functional, organism-based.
Data set [31] in a line: Acute toxicity in BALB/c mouse lung assessed as constricted pulmonary alveoli at 10 to 40 mg/kg, ip administered as single dose measured for 7 days by H and E staining method. It is filed as organism-based. To be noted: in vivo, 168 h, dose 10-40 mg/kg, time 7 day.
In data set [32] the test system is Escherichia coli. Put plainly: Antimicrobial activity against Escherichia coli ATCC 25922 assessed as reduction in survival rate in presence of >= 0.02 microg/ml of trypsin measured after 6 hrs. Type of data set: functional, organism-based.
The test system of a further data set is Cell membrane. In words: Induction of cytoplasmic membrane depolarization in Escherichia coli ATCC 25922 assessed as increase in fluorescence intensity at 4 times MIC measured within 1 min by DiSC3-5 dye based fluorescence method. It is filed as subcellular.
Data set [33] in a line: Acute toxicity in BALB/c mouse assessed as mortality at 20 mg/kg, ip administered as single dose measured for 7 days. It is filed as organism-based. To be noted: in vivo, 168 h, time 7 day.
The nature of data set [34]: Acute toxicity in BALB/c mouse spleen assessed as inflammatory cell infiltration at 10 to 40 mg/kg, ip administered as single dose measured for 7 days by H and E staining method. Type of data set: organism-based. To be noted: in vivo, 168 h, dose 10-40 mg/kg, time 7 day.
Data set [35] in a line: Acute toxicity in BALB/c mouse liver assessed as infiltration of inflammatory cells at 10 to 40 mg/kg, ip administered as single dose measured for 7 days by H and E staining method. Type of data set: organism-based. To be noted: in vivo, 168 h, dose 10-40 mg/kg, time 7 day.
A short description of data set [36]: Acute toxicity in BALB/c mouse assessed as mortality at 40 mg/kg, ip measured within 10 mins. To be noted: in vivo. Type of data set: organism-based.
Another data set concerns HK-2. In words: Cytotoxicity against human HK-2 cells assessed as reduction in cell viability at 0 to 128 uM incubated for 1 hr by Resazurin cell viability kit. Type of data set: toxicity, cell-based. To be noted: hk-2, 1 h, dose 0-128 µM.

Here are results for three compounds from ChEMBL document CHEMBL5108051, “Improving the Antimicrobial Performance of Amphiphilic Cationic Antimicrobial Peptides Using Glutamic Acid Full-Scan and Positive Charge Compensation Strategies” (J Med Chem, 2022).

Calls of active or inactive are those of the source. The rule behind the calls is not given here. Bridge positions count the residues as written; N and C are the ends. Square brackets hold non-standard residues; d marks the D form. Peptide text beside a SMILES is read from it. * marks the point of attachment. X1 = CC[C@H](C)CCCCC(=O)*; Dab = NCC[C@H](N)C(=O)O

As for `CC(C)C[C@H](NC(=O)[C@H](CC(C)C)NC(=O)[C@H](CCC(=O)O)NC(=O)[C@H](CCCCN)NC(=O)[C@H](CC(C)C)NC(=O)[C@H](CC(C)C)NC(=O)[C@H](CCCCN)NC(=O)[C@H](C)NC(=O)[C@@H](NC(=O)[C@H](CCCCN)NC(=O)[C@@H]1CCCN1C(=O)[C@H](CC(C)C)NC(=O)[C@@H](N)Cc1ccccc1)C(C)C)C(N)=O` (H-FLPKVAKLLKELL-NH2), the result in the data set with Staphylococcus aureus [1], in the data set on Staphylococcus aureus [2], in the data set with Escherichia coli [4], in the data set with Staphylococcus aureus [5], in the data set with Escherichia coli [6] and in the data set with Staphylococcus aureus [10] was Active. In addition, the result in the data set on Staphylococcus aureus [11], in the data set on Escherichia coli [12], in the data set on Staphylococcus aureus [13] and in the data set on Staphylococcus aureus [14] was Active. Moreover, the Activity in the data set with Escherichia coli [3] is 100%; in [7] it was “Toxic”; with Staphylococcus aureus [8] it was “Dde”; in data set [9] it was “Non-Toxic”.

Take `CC[C@H](C)[C@H](NC(=O)[C@@H]1CCCN1C(=O)[C@H](CC(C)C)NC(=O)[C@@H](N)Cc1ccccc1)C(=O)N[C@H](C(=O)N[C@@H](C)C(=O)N[C@@H](CCCCN)C(=O)N[C@@H](CC(C)C)C(=O)N[C@@H](CC(C)C)C(=O)N[C@@H](CO)C(=O)NCC(=O)N[C@@H](CC(C)C)C(=O)N[C@@H](CC(C)C)C(N)=O)C(C)C` (H-FLPIVAKLLSGLL-NH2): the result in the data set with Escherichia coli [15] was Active. The Activity is given as 100% with Escherichia coli [16]; 100% in the data set on Escherichia coli [19]; “Toxic” in data set [20]; “Toxic” in data set [21]; “Toxic” in data set [22]. The “fold change (FC)” value in the data set on Staphylococcus aureus [17] and with Staphylococcus aureus [18] was 2 each time.

Turning to `CC[C@H](C)CCCCC(=O)N[C@@H](CCN)C(=O)N[C@H](C(=O)N[C@@H](CCN)C(=O)N[C@H]1CCNC(=O)[C@H]([C@@H](C)O)NC(=O)[C@H](CCN)NC(=O)[C@H](CCN)NC(=O)[C@H](CC(C)C)NC(=O)[C@@H](Cc2ccccc2)NC(=O)[C@H](CCN)NC1=O)[C@@H](C)O` (X1-[Dab]T[Dab][Dab][Dab][dF]L[Dab][Dab]T; lactam 4-C), the Activity entry is “Non-Toxic” in [23]; “Non-Toxic” in [24]; 100% with Escherichia coli [25]; “Non-Toxic” in data set [26]; 100% with Escherichia coli [28]; “Toxic” in [29]. The Activity result in data set [31] was “Non-Toxic”; in data set [33], “Toxic”; in [34], “Non-Toxic”; in [35], “Non-Toxic”; in data set [36], “Toxic”; with HK-2, “Non-Toxic”. Moreover, the outcome in the data set on Escherichia coli [27], in the data set with Escherichia coli [30], with Escherichia coli [32] and in the data set on Cell membrane was Active.
